The nature of the assay: Antagonist activity at human EGFP-fused CCR3 expressed in mouse L1.2 cells assessed as inhibition of CCL11-induced chemotaxis measured after 1.5 hrs by PicoGreen dsDNA reagent-based assay.
As for `C/C=C/c1cc(OC)c2c(c1)[C@@H](C)[C@H](c1cc(OC)c(O)c(OC)c1)O2`, the EC50 (commonly the concentration at which the effect is half-maximal) was found to be 1600 nM. In the case of `C=CCc1cc(OC)c(O[C@@H](C)[C@H](OC(C)=O)c2ccc(OC)c(OC)c2)c(OC)c1` it was 1400 nM; in that of `C=CCc1cc(OC)c(O[C@H](C)[C@@H](O)c2cc(OC)c(O)c(OC)c2)c(OC)c1`, 1500 nM; in that of `COC(=O)[C@H](Cc1ccc([N+](=O)[O-])cc1)NC(=O)c1cccc2ccccc12` [(S)-2-[(Naphthalene-1-carbonyl)-amino]-3-(4-nitro-phenyl)-propionic acid methyl ester], 780 nM.
